Measured values as given in article PMC9289467, “A Novel Multifunctional 5,6-Dimethoxy-Indanone-Chalcone-Carbamate Hybrids Alleviates Cognitive Decline in Alzheimer’s Disease by Dual Inhibition of Acetylcholinesterase and Inflammation” (Frontiers in Aging Neuroscience, 2022).

Assays:
[1] = system: ACh; assay: Brain ACh level, Amplex Red kit, APP/PS1 mice; format: in vivo, mouse; conditions: AP5 40 mg/kg intragastric once daily 5 months, vs APP/PS1 mice
Protocol: (§1) APP/PS1 mice of ages 6 months were randomly divided into vehicle (APP/PS1, n = 10) and treatment groups (AP5, n = 10), which were intragastrically administered with AP5 (40 mg/kg) once daily for consecutive 5 months. AP5 was dissolved in distilled water containing 1% sodium carboxymethyl cellulose.
The brain samples were weighed, homogenized in PBS solution, and centrifuged for 20 min at 25,000 g at 4°C. Amplex® Red acetylcholinesterase/acetylcholine assay kit (A12217, Thermo Fisher Scientific) was used to detect AChE activity and ACh levels in the supernatant in accordance with the manufacturer’s instructions.
Briefly, for ACh assay, the reactions were started by adding 100 µL of the Amplex Red reagent, HRP, choline oxidase, AChE working solution to each microplate well containing the controls and samples. For AChE assay, detection cocktail solution containing ACh, Amplex Red, choline oxidase and horseradish peroxidase was added toeach well. Assay plates were incubated at room temperature for 30 min and protected from light, followed by detecting fluorescence of resorufin (λex = 544 nm, λem = 590 nm) in a fluorescence microplate reader.
After deparaffinization and antigen retrieval, the sections were incubated with 0.3% hydrogen peroxide (H2O2) to inhibit endogenous peroxidase activity for 20 min and blocked by goat serum for 30 min at37°C. […]

[2] = system: Iba1+ microglia; assay: Iba1 immunohistochemistry, microglia morphology, APP/PS1 mice; format: in vivo; conditions: AP5 40 mg/kg once daily 5 months
Protocol: as §1
The fixed hemibrains were paraffin-embedded and sectioned in the coronal plane. The slices were deparaffinized with xylene and rehydrated by a series of gradient alcohols. Antigen retrieval through microwave boiling was performed with 10 mM sodium citrate solution at pH 6.0. The slices were cooled down to room temperature and then rinsed in PBS solution. Then the slices were incubated in 10% goat serum blocking solution for 1 h followed by primary antibodies overnight at 4°C. The next day, the slides were labeled with biotinylated or fluorescent secondary antibodies. Slices were washed three times with PBS before being mounted. Images were captured using a SpinSR10 scanner (Olympus, Tokyo, Japan). […]
After deparaffinization and antigen retrieval, the sections were incubated with 0.3% hydrogen peroxide (H2O2) to inhibit endogenous peroxidase activity for 20 min and blocked by goat serum for 30 min at37°C. Slides were subsequently incubated overnight with specific primary antibodies: anti-Iba1(1:100, ab178847, Abcam, Cambridge, UK) or anti-GFAP (1:100, bs-0199R, Bioss) at4 °C. […]

[3] = system: NeuN, MAP2; assay: NeuN and MAP2 co-immunostaining and western blot, hippocampus; format: in vivo, APP/PS1 mice
Protocol: as §1
The fixed hemibrains were paraffin-embedded and sectioned in the coronal plane. The slices were deparaffinized with xylene and rehydrated by a series of gradient alcohols. Antigen retrieval through microwave boiling was performed with 10 mM sodium citrate solution at pH 6.0. The slices were cooled down to room temperature and then rinsed in PBS solution. Then the slices were incubated in 10% goat serum blocking solution for 1 h followed by primary antibodies overnight at 4°C. The next day, the slides were labeled with biotinylated or fluorescent secondary antibodies. Slices were washed three times with PBS before being mounted. Images were captured using a SpinSR10 scanner (Olympus, Tokyo, Japan).
Frozen hippocampus and cortex were homogenized in pre-cooling RIPA buffer (P0013B, Beyotime) supplemented with 1 mM phenylmethanesulfonyl fluoride (PMSF) and cocktail of protease and phosphatase inhibitors. […] The membranes were incubated with 5% fat-free milk blocking solution for 1 h at room temperature and then probed with primary antibodies overnight at 4°C. […] Densitometric analysis was performed using Quantity One software (Bio-Rad, Berkeley, CA, United States).
Briefly, for ACh assay, the reactions were started by adding 100 µL of the Amplex Red reagent, HRP, choline oxidase, AChE working solution to each microplate well containing the controls and samples. […] Assay plates were incubated at room temperature for 30 min and protected from light, followed by detecting fluorescence of resorufin (λex = 544 nm, λem = 590 nm) in a fluorescence microplate reader. […]
(1:100, BAF2655, R&D, Minneapolis, MN, USA). […] For the quantification of Aβ plaque-associated microglia and […]

[4] = hippocampal CA1 pyramidal layer

## CCN(C)C(=O)Oc1cccc(/C=C2\Cc3cc(OC)c(OC)cc3C2=O)c1 [AP5, (E)-3-((5,6-dimethoxy-1-oxo-1,3-dihydro-2H-inden-2-ylidene)-methyl)phenylethyl(methyl)carbamate]
[1]
  ACh levels in cortex and hippocampus: elevated levels of ACh
[2]
  proportion of activated microglia phenotype: marked decrease
[3]; [4]
  MAP2 signals: restored
  average number of NeuN+ cells: restored
[3]; western blot, hippocampus
  protein expression of NeuN and MAP2: markedly increased
